Reference: US20220249415A1, “COMPOSITION OF AZELAIC ACID HAVING ADIPOSE TRIGLYCERIDE HYDROLYSIS EFFECT” (Korea University Research and Business Foundation, priority 2018, published 2022)

Key:
[1] = system: 3T3-L1 adipocytes; experiment: IP-one assay (ELISA) in 3T3-L1 adipocytes; type: cell-based, mouse; details: 50 μM azelaic acid, 18 hours
Protocol: Therefore, changes in concentrations of cAMP, IP-one (metabolite of IP3), and calcium, which are second messengers by azelaic acid corresponding to the Olfr544 ligand, in 3T3-L1 adipocytes were measured. Since IP3 has low stability to thereby be easily decomposed to IP-one, an amount of intracellular IP-One (metabolite of IP3) was quantified instead of IP3.
IP-one assay is a method of measuring a concentration of IP3 corresponding to a second messenger formed by phospholipolysis by phospholipase in a GPCR signal transduction process to measure an ability to regulate protein kinase C (PKC) signal transduction. In the present experiment, 1×10^4 3T3-L1 adipocytes were seeded in each well of the 96-well plate and differentiated, and then treated with 50 μM azelaic acid for 18 hours. Then, in order to measure IP3, the concentration of intracellular IP-one (metabolite of IP3, a surrogate marker) of which an error was small was measured using an IP-one ELISA Assay kit (Cisbio, France).

[2] = system: 3T3-L1 adipocytes; experiment: Intracellular calcium assay (Fluo-4 Direct) in 3T3-L1 adipocytes; type: cell-based, mouse
Protocol: Therefore, changes in concentrations of cAMP, IP-one (metabolite of IP3), and calcium, which are second messengers by azelaic acid corresponding to the Olfr544 ligand, in 3T3-L1 adipocytes were measured. Since IP3 has low stability to thereby be easily decomposed to IP-one, an amount of intracellular IP-One (metabolite of IP3) was quantified instead of IP3. The concentration of intracellular calcium was measured using a Fluo-4 Direct™ Calcium Assay Kit (Invitrogen, California, U.S.) containing a fluorescent dye for labeling calcium ions. The cultured 3T3-L1 adipocytes were obtained and subjected to centrifugation, and then only pellets were diluted in a Fluo-4 Direct™ calcium assay buffer solution contained in the kit at a concentration of 2.5×10^6 cells/mL. After the resultant was seeded in a 96-well plate and cultured at 37° C. under 5% CO2 conditions for 60 minutes, 50 μL of a 2×Fluo-4 Direct™ calcium reagent loading solution was seeded in the 96-well plate and cultured at 37° C. under 5% CO2 conditions for 30 minutes. Then, fluorescence was measured at excitation and emission wavelengths of 494 nm and 516 nm.

[3] = system: 3T3-L1 adipocytes; experiment: Western blot of phosphorylation of CREB and HSL in 3T3-L1 adipocytes; type: cell-based, mouse; details: azelaic acid 50 μM, 2 hours, vs control
From the text: When the PKA protein activity is increased by azelaic acid, phosphorylation of target proteins of PKA is increased. Therefore, phosphorylation of cAMP-response element binding protein (CREB) and hormone-sensitive lipase (HSL) known as target proteins of PKA was confirmed by a western blot experiment. […] Primary antibodies used in the experiment were anti-phospho-CREB and anti-phospho-HSL antibodies (Santa Cruz, Calif., U.S.).

[4] = system: 3T3-L1 adipocytes in which the Olfr544 gene was knocked-down; experiment: cAMP, PKA activity and HSL phosphorylation in adipocytes in which Olfr544 gene was knocked-down; type: cell-based, mouse; details: Olfr544 shRNA transfected adipocytes treated with azelaic acid for 2 hours
From the text: After the Olfr544 gene was knocked-down in the mouse adipocytes, cAMP assay was confirmed by the method described in Example 4, PKA activity was confirmed by the method described in Example 5, and phosphorylation of HSL protein was confirmed by the method described in Example 6.

[5] = system: normal mice; experiment: Energy metabolism by indirect calorimetry in normal mice; type: in vivo, mouse; details: 50 mg/kg oral, 6 weeks
From the text: Relative metabolic rates were confirmed by measuring consumption amount of O2 and production amounts of CO2 of an azelaic acid administration group and a control group using indirect calorimetry.

[6] = system: hAMSC cells; experiment: Treatment of human adipocyte line hAMSC with azelaic acid; type: cell-based; details: azelaic acid 50 μM
Protocol: The anti-obesity effect was confirmed by treating a human adipocyte line, namely hAMSC cells (Cell Bio, CEFO, Seoul Korea), with azelaic acid (50 μM).

[7] = system: HepG2 cells; experiment: Treatment of human liver tissue cell line HepG2 with azelaic acid; type: cell-based; details: azelaic acid 50 μM
[8] = target: T1, OR2S2 (Homo sapiens, UniProt Q9NQN1); experiment: siRNA knock-down of OR2S2 in HepG2 cells, fatty acid oxidation-related gene expression; type: cell-based; details: HepG2 cells during knock-down of OR2S2
T1 construct: endogenous in cells; host or cells: HepG2
T1 sequence (Q9NQN1 1-319): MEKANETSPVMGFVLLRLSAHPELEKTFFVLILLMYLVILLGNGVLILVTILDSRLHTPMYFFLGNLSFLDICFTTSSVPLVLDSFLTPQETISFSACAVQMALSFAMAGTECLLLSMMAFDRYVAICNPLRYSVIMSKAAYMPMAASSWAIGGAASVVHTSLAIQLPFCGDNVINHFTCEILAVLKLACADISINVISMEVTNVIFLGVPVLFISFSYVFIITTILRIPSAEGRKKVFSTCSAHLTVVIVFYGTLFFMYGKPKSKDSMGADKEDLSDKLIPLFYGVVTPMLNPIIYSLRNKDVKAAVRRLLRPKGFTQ
From the text: The gene expression of OR1E1, OR1K1, OR2K2, OR2S2, OR13C5, and OR51E2, corresponding to the top 6 receptors among 10 human olfactory receptors selected to be expressed in both adipose tissue and liver tissue while interacting with azelaic acid, was knocked down with siRNA in human-derived liver cell and adipocyte lines, namely HepG2 cells and hAMSC cells, respectively. Here, siRNAs that were used were OR1E2 siRNA (sc-93932), OR1K2 (sc-92810), OR2K2 (sc-92852), OR2S2 (sc-92505), OR13C5 (sc-92899), and OR51E2 (sc-76265), purchased from Santa Cruz Biotechnology Inc. (Dallas, Tx USA).
After knock-down treatment, the cell lines were treated with azelaic acid, and triglyceride hydrolysis and fatty acid oxidation-related gene expression in HepG2 cells as a human-derived liver cell line and hAMSC cells as a human-derived adipocyte line were measured.

[9] = system: C57BL/6 mice; experiment: Subcutaneous injection in high-fat diet fed male C57BL/6 mice; type: in vivo, mouse; details: high-fat diet male C57BL/6 mice, 50 mg/kg subcutaneously, 3.5 weeks
Protocol: After 4 weeks of high-fat diet feeding in male C57BL/6 mice (7-8 per group), 50 mg/kg of azelaic acid was administered subcutaneously for 3.5 weeks, and Saxenda, which is used as an anti-obesity drug, was administered as a positive control.

O=C(O)CCCCCCCC(=O)O [azelaic acid, nonanedioic acid]
concentration of IP3 (IP-one) [1]: did not affect | concentration of intracellular calcium [2]: did not affect | phosphorylation of CREB [3]: rapidly increased | phosphorylation of HSL [3]: rapidly increased | cAMP-PKA-HSL signaling pathway [4]: all inactivated | consumption amount of O2 ([5]; vs control): no large difference | fatty acid oxidation ([5]; vs control): increased | respiratory quotient (RQ) ([5]; vs control): decreased | total energy expenditure (EE) ([5]; vs control): no change | production amount of CO2 ([5]; vs control group): significantly increased | cAMP-PKA signaling [6]: activated | calcium concentration [6]: no change | inositol phosphate (IP) concentration [6]: no change | release of glycerol [6]: promoted | triglyceride concentration ([7]; HepG2 cells (lipid-loaded)): significantly decreased | CREB phosphorylation (p-CREB) ([7]; HepG2 cells): increased | cAMP-PKA signaling pathway ([7]; HepG2 cells): activated | expression of fatty acid oxidation-related gene PPAR-α ([7]; HepG2 cells): increased | fatty acid oxidation (FA oxidation) ([7]; HepG2 cells): increased | expression of fatty acid oxidation-related genes (PPARa, CTP1, Acox2) upon treatment with azelaic acid [8]: did not change | body weight [9]: reduced body weight | subcutaneous fat [9]: reducing subcutaneous fat
